Source: ChEMBL document CHEMBL1909046, “DrugMatrix in vitro pharmacology data”
pIC50, pKi: −log10 of the molar value.

Tests used:
[1] = biological target: T1, Angiotensin-converting enzyme (Oryctolagus cuniculus, UniProt P12822); assay type: tissue-based, Lung;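 further: enzymatic inhibition of angiotensin-converting enzyme measured with FAPGG as the substrate; in other assays of this panel Not Active means under 50% inhibition at 10 µM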
T1 sequence (P12822 whole entry): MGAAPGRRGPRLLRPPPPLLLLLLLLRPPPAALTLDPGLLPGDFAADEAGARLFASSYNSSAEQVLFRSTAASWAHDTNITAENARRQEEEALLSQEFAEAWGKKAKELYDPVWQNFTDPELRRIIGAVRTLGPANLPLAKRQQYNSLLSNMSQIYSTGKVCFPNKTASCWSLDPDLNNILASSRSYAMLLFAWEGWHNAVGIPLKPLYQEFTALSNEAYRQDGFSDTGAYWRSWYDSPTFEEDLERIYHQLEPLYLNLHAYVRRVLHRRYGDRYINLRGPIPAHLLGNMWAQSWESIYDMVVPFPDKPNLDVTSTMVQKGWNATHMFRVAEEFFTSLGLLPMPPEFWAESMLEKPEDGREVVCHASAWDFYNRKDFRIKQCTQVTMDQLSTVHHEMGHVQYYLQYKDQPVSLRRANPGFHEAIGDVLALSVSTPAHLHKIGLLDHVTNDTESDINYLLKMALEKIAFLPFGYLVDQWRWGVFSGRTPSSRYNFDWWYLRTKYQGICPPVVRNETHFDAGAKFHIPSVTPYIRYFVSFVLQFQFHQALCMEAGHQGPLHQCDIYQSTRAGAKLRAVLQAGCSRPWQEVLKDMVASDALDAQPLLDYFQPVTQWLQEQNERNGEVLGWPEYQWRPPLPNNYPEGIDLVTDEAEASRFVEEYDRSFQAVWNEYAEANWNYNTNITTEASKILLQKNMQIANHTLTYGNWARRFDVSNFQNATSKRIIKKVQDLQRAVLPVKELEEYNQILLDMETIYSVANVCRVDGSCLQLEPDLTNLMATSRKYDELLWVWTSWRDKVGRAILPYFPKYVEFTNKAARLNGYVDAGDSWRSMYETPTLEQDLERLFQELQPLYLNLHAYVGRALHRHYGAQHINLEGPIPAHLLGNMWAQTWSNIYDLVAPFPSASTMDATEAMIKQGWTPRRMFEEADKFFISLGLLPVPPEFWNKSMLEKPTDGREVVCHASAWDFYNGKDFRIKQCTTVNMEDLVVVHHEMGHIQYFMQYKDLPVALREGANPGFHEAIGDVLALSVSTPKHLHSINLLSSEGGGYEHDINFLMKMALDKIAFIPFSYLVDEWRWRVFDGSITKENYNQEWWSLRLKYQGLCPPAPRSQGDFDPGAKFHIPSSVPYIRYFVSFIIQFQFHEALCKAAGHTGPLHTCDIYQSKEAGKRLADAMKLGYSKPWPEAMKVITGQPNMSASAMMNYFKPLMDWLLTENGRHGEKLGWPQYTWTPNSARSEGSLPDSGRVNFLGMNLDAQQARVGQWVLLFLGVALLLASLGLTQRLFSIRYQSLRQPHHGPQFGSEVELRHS

[2] = biological target: Mitogen-activated protein kinase 3 (Homo sapiens, UniProt P27361); assay: DRUGMATRIX: Protein Serine/Threonine Kinase, ERK1 enzyme inhibition (substrate: Myelin Basic Protein); design: species or system Escherichia coli; details: Not Active = under 50% inhibition at 10 µM
Sequence of Mitogen-activated protein kinase 3 (P27361 whole entry): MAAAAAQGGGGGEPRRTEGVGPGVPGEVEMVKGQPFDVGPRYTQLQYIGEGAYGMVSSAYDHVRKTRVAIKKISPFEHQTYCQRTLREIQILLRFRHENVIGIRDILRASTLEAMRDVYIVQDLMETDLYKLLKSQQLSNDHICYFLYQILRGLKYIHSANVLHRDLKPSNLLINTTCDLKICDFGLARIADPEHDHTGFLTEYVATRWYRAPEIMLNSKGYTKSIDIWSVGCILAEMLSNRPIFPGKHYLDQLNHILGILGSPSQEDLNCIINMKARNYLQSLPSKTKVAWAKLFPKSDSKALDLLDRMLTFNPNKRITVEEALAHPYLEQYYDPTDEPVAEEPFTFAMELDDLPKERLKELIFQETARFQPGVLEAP

[3] = biological target: Melanocortin receptor 4 (Homo sapiens, UniProt P32245); assay type: cell membranes, Membrane; details: hek293; further: in other assays of this panel Not Active means under 50% inhibition at 10 µM
Sequence of Melanocortin receptor 4 (P32245 whole entry): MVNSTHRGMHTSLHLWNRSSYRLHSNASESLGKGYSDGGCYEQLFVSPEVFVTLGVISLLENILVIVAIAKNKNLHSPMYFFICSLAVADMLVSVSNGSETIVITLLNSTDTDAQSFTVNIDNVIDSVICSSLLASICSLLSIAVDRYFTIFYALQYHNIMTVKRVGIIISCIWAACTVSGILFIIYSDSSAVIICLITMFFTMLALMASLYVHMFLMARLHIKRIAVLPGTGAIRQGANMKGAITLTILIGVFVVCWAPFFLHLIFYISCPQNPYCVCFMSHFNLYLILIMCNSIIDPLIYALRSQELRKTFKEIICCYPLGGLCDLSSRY

[4] = biological target: T2, C-C chemokine receptor type 4 (Homo sapiens, UniProt P51679); assay type: cell membranes, Membrane; details: chem-1; further: in other assays of this panel Not Active means under 50% inhibition at 10 µM
T2 sequence (P51679 whole entry): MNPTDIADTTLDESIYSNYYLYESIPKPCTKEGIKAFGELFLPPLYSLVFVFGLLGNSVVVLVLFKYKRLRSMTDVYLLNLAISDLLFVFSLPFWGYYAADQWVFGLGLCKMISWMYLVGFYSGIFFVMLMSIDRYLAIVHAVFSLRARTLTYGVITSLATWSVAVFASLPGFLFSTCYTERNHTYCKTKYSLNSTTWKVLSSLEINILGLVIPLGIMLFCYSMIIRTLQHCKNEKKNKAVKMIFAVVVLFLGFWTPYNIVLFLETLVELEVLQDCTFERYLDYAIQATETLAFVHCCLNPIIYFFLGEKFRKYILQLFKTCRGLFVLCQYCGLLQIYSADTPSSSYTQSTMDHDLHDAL

[5] = DRUGMATRIX: Calcium Channel Type L, Dihydropyridine radioligand binding (ligand: [3H] Nitrendipine); assay type: cell membranes, Rattus norvegicus, Wistar, Cerebral cortex, Membrane; details: Not Active = under 50% inhibition at 10 µM
[6] = DRUGMATRIX: Glutamate, NMDA, Phencyclidine radioligand binding (ligand: [3H] TCP); assay type: cell membranes, Rattus norvegicus, Wistar, Cerebral cortex, Membrane; details: Not Active = under 50% inhibition at 10 µM

Row | Compound | IC50 [1] | IC50 [2] | IC50 [3] | IC50 [4] | IC50 [5] | Ki [5] | IC50 [6] | Ki [6] | Ki [1] | Ki [2] | pIC50 ([3]; read-out: IC50) | pKi ([3]; read-out: Ki) | Ki [4]
1 | NC(=O)c1cccc(N)c1 [3-AMINOBENZAMIDE] | Not Active | Not Active | Not Active | Not Active | Not Active | Not Active | Not Active | Not Active |  |  |  |  | 
2 | NC(=O)c1cccnc1 [NIACINAMIDE] | Not Active | Not Active | Not Active | Not Active | Not Active | Not Active | Not Active | Not Active |  |  |  |  | 
3 | CCC1=C(C)CN(C(=O)NCCc2ccc(S(=O)(=O)NC(=O)N[C@H]3CC[C@H](C)CC3)cc2)C1=O [GLIMEPIRIDE] | Not Active | Not Active | Not Active | Not Active | Not Active | Not Active | Not Active | Not Active |  |  |  |  | 
4 | CC(C)NCC(O)c1ccccc1Cl (stereo not drawn) [CLORPRENALINE] | Not Active | Not Active | Not Active | Not Active | Not Active | Not Active | Not Active | Not Active |  |  |  |  | 
5 | CC(=O)OCC(=O)[C@@]12OC(C)(C)O[C@@H]1C[C@H]1[C@@H]3C[C@H](F)C4=CC(=O)C=C[C@]4(C)[C@@]3(F)[C@@H](O)C[C@@]12C [FLUOCINONIDE] | Not Active | Not Active | Not Active | Not Active | Not Active | Not Active | Not Active | Not Active |  |  |  |  | 
6 | COc1cccc2c1C(=O)c1c(O)c3c(c(O)c1C2=O)C[C@@](O)(C(C)=O)C[C@@H]3O[C@H]1C[C@H](N)[C@H](O)[C@H](C)O1 [DAUNORUBICIN] | Not Active | Not Active | Not Active | Not Active | Not Active | Not Active | Not Active | Not Active |  |  |  |  | 
7 | COc1ccccc1N | Not Active | Not Active | Not Active | Not Active | Not Active | Not Active | Not Active | Not Active |  |  |  |  | 
8 | CC[C@]1(O)C[C@@H]2CN(CCc3c([nH]c4ccccc34)[C@@](C(=O)OC)(c3cc4c(cc3OC)N(C)[C@H]3[C@@](O)(C(N)=O)[C@H](O)[C@]5(CC)C=CCN6CC[C@]43[C@@H]65)C2)C1 [VINDESINE] | Not Active | Not Active | Not Active | Not Active | Not Active | Not Active | Not Active | Not Active |  |  |  |  | 
9 | CCOc1nc2cccc(C(=O)O)c2n1Cc1ccc(-c2ccccc2-c2nnn[nH]2)cc1 | Not Active | Not Active | Not Active | Not Active | Not Active | Not Active | Not Active | Not Active |  |  |  |  | 
10 | C[S+](C)[O-] [DIMETHYL SULFOXIDE] | Not Active | Not Active | Not Active | Not Active | Not Active | Not Active | Not Active | Not Active |  |  |  |  | 
11 | C[C@@H]1O[C@@H](O[C@H]2C[C@@H](O)[C@]3(CO)[C@H]4[C@H](O)C[C@]5(C)[C@@H](C6=CC(=O)OC6)CC[C@]5(O)[C@@H]4CC[C@]3(O)C2)[C@H](O)[C@H](O)[C@H]1O [OUABAIN] | Not Active | Not Active | Not Active | Not Active | Not Active | Not Active | Not Active | Not Active |  |  |  |  | 
12 | C#C[C@]1(O)CC[C@H]2[C@@H]3CCC4=CC(=O)CC[C@]4(C)[C@H]3CC[C@@]21C [ETHISTERONE] | Not Active | Not Active | Not Active | Not Active | Not Active | Not Active | Not Active | Not Active |  |  |  |  | 
13 | O=C(c1ccccc1F)N1CCC(Cc2ccccc2)CC1 | Not Active | Not Active | Not Active | Not Active | Not Active | Not Active | Not Active | Not Active |  |  |  |  | 
14 | O=C(O)CCNC(=O)c1ccc(/N=N/c2ccc(O)c(C(=O)O)c2)cc1 [BALSALAZIDE] | Not Active | Not Active | Not Active | Not Active | Not Active | Not Active | Not Active | Not Active |  |  |  |  | 
15 | N=C(N)c1ccc(OCCCCCOc2ccc(C(=N)N)cc2)cc1 [PENTAMIDINE] | Not Active | Not Active | Not Active | Not Active | Not Active | Not Active | Not Active | Not Active |  |  |  |  | 
16 | CN1C(=O)CN=C(c2ccccc2)c2cc([N+](=O)[O-])ccc21 [NIMETAZEPAM] | Not Active | Not Active | Not Active | Not Active | Not Active | Not Active | Not Active | Not Active |  |  |  |  | 
17 | NS(=O)(=O)c1cc(C2(O)NC(=O)c3ccccc32)ccc1Cl (stereo not drawn) [CHLORTHALIDONE] | Not Active | Not Active | Not Active | Not Active | Not Active | Not Active | Not Active | Not Active |  |  |  |  | 
18 | CC(=O)OCC(=O)[C@@]1(O)CC[C@H]2[C@@H]3CCC4=CC(=O)CC[C@]4(C)[C@@]3(F)[C@@H](O)C[C@@]21C [FLUDROCORTISONE ACETATE] | Not Active | Not Active | Not Active | Not Active | Not Active | Not Active | Not Active | Not Active |  |  |  |  | 
19 | COLISTIN | Not Active | Not Active |  | Not Active | Not Active | Not Active | Not Active | Not Active | Not Active | Not Active | 6.08 | 6.09 | Not Active
20 | O=c1c(-c2ccc(O)cc2)coc2cc(O)cc(O)c12 [GENISTEIN] | Not Active | Not Active | Not Active | Not Active | Not Active | Not Active | Not Active | Not Active |  |  |  |  | 
21 | CN1C[C@@H]2C[C@H]1CN2c1cc2c(cc1F)c(=O)c(C(=O)O)cn2C1CC1 [DANOFLOXACIN] | Not Active | Not Active | Not Active | Not Active | Not Active | Not Active | Not Active | Not Active |  |  |  |  | 
22 | C[C@]12C=CC(=O)C=C1CC[C@H]1[C@@H]3C[C@@H](O)[C@](O)(C(=O)CO)[C@@]3(C)C[C@H](O)[C@@]12F [TRIAMCINOLONE] | Not Active | Not Active | Not Active | Not Active | Not Active | Not Active | Not Active | Not Active |  |  |  |  | 
23 | CN1CCN(c2c(F)cc3c(=O)c(C(=O)O)cn(CCF)c3c2F)CC1 [FLEROXACIN] | Not Active | Not Active | Not Active | Not Active | Not Active | Not Active | Not Active | Not Active |  |  |  |  | 
